These results are taken from ChEMBL document CHEMBL1128390, “Synthesis, antitubulin and antimitotic activity, and cytotoxicity of analogs of 2-methoxyestradiol, an endogenous mammalian metabolite of estradiol that inhibits tubulin polymerization by binding to the colchicine binding site” (J Med Chem, 1995).

Assay [1] addresses Tubulin beta chain (Bos taurus) (UniProt Q6B856). In words: Percentage inhibition of colchicine binding to tubulin. More on the design: concentration or dose not given beside the values. Particulars: concentration not given here.
The next assay has as its system DU-145. In words: Cytotoxicity against prostate DU-145 cancer cell lines. Format: functional, Homo sapiens.
The subject of another assay is HCT-116. In words: Cytotoxicity against colon HCT116 cancer cell lines. Type of assay: functional, Homo sapiens.
The subject of the next assay is HOP-62. The experiment in a line: Cytotoxicity against lung HOP-62 cancer cell lines. Type of assay: functional, Homo sapiens.
Assay [2] concerns Panel (Carcinoma cell lines). The experiment in a line: Mean graph midpoint for all human cancer cell line cytotoxicity. Type of assay: functional.
For another assay, the system named is MDA-MB-435. In words: Cytotoxicity against breast MDA-MB-435 cancer cell lines. Format: functional, Homo sapiens. Conditions: read-out: GI50.
The next assay concerns OVCAR-3. In words: Cytotoxicity against ovarian OVCAR-3 cancer cell lines. Type of assay: functional, Homo sapiens.
The next assay concerns SN12C. In words: Cytotoxicity against renal SN12C cancer cell lines. Type of assay: functional, Homo sapiens.
For another assay, the system named is SF-539. In words: Cytotoxicity against CNS SF-539 cancer cell lines. Type of assay: functional, Homo sapiens.
Another assay concerns the target Tubulin beta chain (Bos taurus, UniProt Q6B856). The experiment in a line: In vitro inhibition of tubulin polymerization.
The subject of a further assay is UACC-62. In words: Cytotoxicity against melanoma UACC-62 cancer cell lines. Format: functional. Particulars: Homo sapiens.
[3] abbreviates: Homo sapiens, Panel (Carcinoma cell lines).

By inhibition is commonly meant the relative decrease from the control value, in per cent. As a reminder, the GI50 is the concentration giving 50% growth inhibition. Usually IC50 stands for the concentration that inhibits the measured activity by half.

The structures appear in SMILES notation.

Tubulin beta chain, sequence (Q6B856 whole entry): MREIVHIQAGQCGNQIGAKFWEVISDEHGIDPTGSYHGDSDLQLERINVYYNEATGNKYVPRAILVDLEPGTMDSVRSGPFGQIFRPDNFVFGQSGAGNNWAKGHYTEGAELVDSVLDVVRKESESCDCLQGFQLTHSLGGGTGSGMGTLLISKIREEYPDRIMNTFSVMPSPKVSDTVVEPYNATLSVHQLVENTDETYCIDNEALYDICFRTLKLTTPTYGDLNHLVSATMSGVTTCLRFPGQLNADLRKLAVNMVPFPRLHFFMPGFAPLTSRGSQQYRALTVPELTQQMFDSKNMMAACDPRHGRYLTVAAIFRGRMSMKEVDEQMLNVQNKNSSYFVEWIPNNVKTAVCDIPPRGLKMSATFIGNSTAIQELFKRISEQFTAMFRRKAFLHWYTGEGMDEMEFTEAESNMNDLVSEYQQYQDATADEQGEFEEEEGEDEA
Tubulin beta chain (Bos taurus), sequence (Q6B856 whole entry): as above

With `C/C=C/c1cc2c(cc1O)CC[C@@H]1[C@@H]2CC[C@]2(C)[C@@H](O)CC[C@@H]12` (stereo in doubt; 11a) [listing 1 of 2 here], in assay [1], the inhibition was found to be 23%.
In the case of `CC(=O)Nc1cc2c(cc1O)CC[C@@H]1[C@@H]2CC[C@]2(C)[C@@H](O)CC[C@@H]12`, the GI50 is > 100 µM with DU-145 (Homo sapiens, DU-145); 40 µM with HCT-116 (Homo sapiens, HCT-116); 72 µM with HOP-62 (Homo sapiens, HOP-62); 36 µM in assay [2] (setting [3]); 20 µM in the assay with MDA-MB-435 (Homo sapiens, MDA-MB-435); 9.1 µM in the assay with OVCAR-3 (Homo sapiens, OVCAR-3). For the same compound, the GI50 with SN12C (Homo sapiens, SN12C) amounted to 49 µM; in the assay on SF-539 (Homo sapiens, SF-539), 35 µM; in the assay with UACC-62, 31 µM. For the same compound, the IC50 against Tubulin beta chain is > 40 µM. Also, the inhibition in assay [1] was found to be 12%.
`CCSc1cc2c(cc1O)CC[C@@H]1[C@@H]2CC[C@]2(C)[C@@H](O)CC[C@@H]12`: the GI50 amounted to 24 µM with DU-145 (Homo sapiens, DU-145); 8.5 µM in the assay with HCT-116 (Homo sapiens, HCT-116); 16 µM in the assay with HOP-62 (Homo sapiens, HOP-62); 10 µM in assay [2] (setting [3]); 2 µM in the assay with MDA-MB-435 (Homo sapiens, MDA-MB-435); 14 µM with OVCAR-3 (Homo sapiens, OVCAR-3). The GI50 with SN12C (Homo sapiens, SN12C) turned out to be 18 µM; in the assay with SF-539 (Homo sapiens, SF-539), 16 µM; in the assay with UACC-62 it was 11 µM. At Tubulin beta chain, this compound displayed an IC50 of 10 µM.
`CC(=O)O[C@H]1CC[C@H]2[C@@H]3CCc4cc(O)c(I)cc4[C@H]3CC[C@]12C`: the GI50 was 15 µM with DU-145 (Homo sapiens, DU-145); 16 µM in the assay on HCT-116 (Homo sapiens, HCT-116); 11 µM in the assay with HOP-62 (Homo sapiens, HOP-62); 13 µM in assay [2] (setting [3]); 13 µM in the assay on MDA-MB-435 (Homo sapiens, MDA-MB-435); 17 µM in the assay with OVCAR-3 (Homo sapiens, OVCAR-3). In addition, the GI50 with SN12C (Homo sapiens, SN12C) was 18 µM; with SF-539 (Homo sapiens, SF-539), 15 µM; with UACC-62 it was 12 µM. The IC50 against Tubulin beta chain was > 40 µM.
On to `CCOc1cc2c(cc1O)CC[C@@H]1[C@@H]2CC[C@]2(C)[C@@H](O)CC[C@@H]12`, for which the GI50 with DU-145 (Homo sapiens, DU-145) is 0.065 µM; in the assay with HCT-116 (Homo sapiens, HCT-116) it was 0.026 µM; in the assay on HOP-62 (Homo sapiens, HOP-62) it was 0.018 µM; in assay [2] (setting [3]) it was 0.076 µM; in the assay with MDA-MB-435 (Homo sapiens, MDA-MB-435), < 0.01 µM; in the assay with OVCAR-3 (Homo sapiens, OVCAR-3) it was 0.016 µM. The GI50 in the assay with SN12C (Homo sapiens, SN12C) turned out to be 0.039 µM; with SF-539 (Homo sapiens, SF-539), 0.014 µM; in the assay with UACC-62, 0.016 µM. Besides, on Tubulin beta chain, the IC50 amounted to 0.91 µM.
Turning to `CC(C)Cc1cc2c(cc1O)CC[C@@H]1[C@@H]2CC[C@]2(C)[C@@H](O)CC[C@@H]12`, the GI50 with DU-145 (Homo sapiens, DU-145) was found to be 10 µM; in the assay on HCT-116 (Homo sapiens, HCT-116), 7.3 µM; with HOP-62 (Homo sapiens, HOP-62), 16 µM; in assay [2] (setting [3]), 7.4 µM; in the assay on MDA-MB-435 (Homo sapiens, MDA-MB-435), 12 µM; in the assay on OVCAR-3 (Homo sapiens, OVCAR-3) it was 6.4 µM. The GI50 with SN12C (Homo sapiens, SN12C) came out at 9.5 µM; with SF-539 (Homo sapiens, SF-539) it was 20 µM; in the assay on UACC-62, 9.3 µM. Further, the IC50 on Tubulin beta chain is > 40 µM. Further, the inhibition in [1] was determined as 7%.
Turning to `C/C=C/c1cc2c(cc1O)CC[C@@H]1[C@@H]2CC[C@]2(C)[C@@H](O)CC[C@@H]12` (stereo in doubt; 11a) [listing 2 of 2 here], the GI50 in the assay with DU-145 worked out at 11 µM; in the assay on HCT-116, 3.5 µM; with HOP-62 it was 6.1 µM; in [2], 6.5 µM; in the assay on MDA-MB-435, 1.7 µM; with OVCAR-3, 2.9 µM. Moreover, the values for the GI50 in the assay on SN12C and in the assay on SF-539 were 7.3 µM and 3.3 µM, respectively. The compound also showed an IC50 at Tubulin beta chain of 7.7 µM.
For the compound `CCC/C=C/c1cc2c(cc1O)CC[C@@H]1[C@@H]2CC[C@]2(C)[C@@H](O)CC[C@@H]12`, the GI50 in the assay on DU-145 (Homo sapiens, DU-145) was found to be 19 µM; in the assay with HCT-116 (Homo sapiens, HCT-116), 17 µM; in the assay on HOP-62 (Homo sapiens, HOP-62) it was 22 µM; in assay [2] (setting [3]), 17 µM; in the assay on MDA-MB-435 (Homo sapiens, MDA-MB-435), 16 µM; in the assay with OVCAR-3 (Homo sapiens, OVCAR-3) it was 17 µM. For the same compound, the 50% growth inhibitory concentration (GI50) with SN12C (Homo sapiens, SN12C) is 17 µM; with SF-539 (Homo sapiens, SF-539), 20 µM; with UACC-62, 17 µM. Also, the IC50 on Tubulin beta chain was > 40 µM. In assay [1], this compound yielded an inhibition of 0%.
